{"source": "patent US12268665B2", "about": "“Combination of immunotherapies with MDM2 inhibitors” (ASCENTAGE PHARMA (SUZHOU) CO., LTD., priority 2018, dated 2025)", "key": {"[1]": {"tested_on": "stimulated mouse splenocytes", "experiment": "Cytokine production in stimulated mouse splenocytes (MSD V-PLEX)", "type": "cell-based", "details": "250 nM, 24 h", "experimental": "The effect of APG-115 on cytokine production in stimulated mouse splenocytes was investigated. Mouse splenocytes freshly isolated from mice were stimulated with 5 μg/ml plate-bound anti-CD3 and 2 μg/ml anti-CD28 in the presence of APG-115 (250 nM) or DMSO for 24 h. After the treatment, supernatants were collected from the cell cultures and then cytokines were measured by MSD V-PLEX kit which enabled to test 10 cytokines."}, "[2]": {"tested_on": "Trp53 mutant MC38 syngeneic murine colon tumor", "experiment": "In vivo efficacy study in MC38 model", "design": "species or system mouse", "details": "for T/C (%) d17 / RTV (Mean ± SEM) d17: anti-PD-1 5 mg/kg i.p. biw; for RTV (Mean ± SEM) d17: C57BL/6 mice", "experimental": "Each mouse was inoculated subcutaneously at the right flank region with MC38 tumor cells (5×10^5) in 0.1 mL of PBS for tumor development. The treatments were initiated when the mean tumor size reached ˜63 mm^3. The test articles were administered to the tumor-bearing mice according to the regimen shown in the experimental design Table 10. The day of start dosing was defined as d1.\nEfficacy of combination treatment with APG-115 plus anti-PD-1 antibody was further evaluated in a Trp53 mutant MC38 syngeneic mouse tumor model on a C57BL/6 background."}, "[3]": {"tested_on": "MH-22A cells", "experiment": "PD-L1 expression on tumor cells (Western blotting, flow cytometry)", "type": "cell-based, mouse", "details": "72 h", "experimental": "Transcription factor p53 is involved in the regulation of PD-L1 expression (Cortez M A, 2015), which might serve as an indicator of the efficacy of anti-PD-1/PD-L1 treatment. Besides the effects on T cells, how APG-115 effects PD-L1 expression on MH-22A tumor cells was also investigated in vitro.\nMH-22A cells were treated with indicated doses of APG-115 for 72 h. The expression levels of MDM2, p53, total STAT3 (t-STAT3), phosphorylated STAT3 (p-STAT3), PD-L1, and β-actin (loading control) expression were determined by Western blotting. PD-L1 expression levels which were reflected by fluorescence intensity were determined by flow cytometry."}, "[4]": {"tested_on": "tumor infiltrating cells in MH-22A syngeneic tumors", "experiment": "TIL analysis by flow cytometry, p53 wt MH-22A syngeneic tumors", "type": "in vivo", "details": "p53 wt MH-22A tumors", "experimental": "The live/dead fixable dye (Invitrogen) was used to exclude dead cells. The FOXP3 kit from eBioscience was used for FOXP3 staining. Cells were washed and stained for 30 min on ice with indicated antibodies in MACS buffer or Brilliant staining buffer. Samples were than analyzed on Life Technology Attune NxT flow cytometer.\nMice were euthanized on day 7, and tumors were mechanically dissociated and digested with Collagenase IV (Sigma), hyaluronic acid (Sigma) and DNase (Sigma). Single-cell suspensions were prepared and stained against the indicated markers for flow cytometry analysis. Tumor samples were collected 24 hrs post last dosing.\nOn d7, when the mean tumor volume reached approximately 300-500 mm3, syngeneic tumors were collected and processed for TIL analysis. […] There were approximately a 1.5 to 2-fold increase relative to the control. […] Most strikingly, the frequency of M2 macrophages was reduced by the combined therapy in comparison with both control (P<0.01) and anti-PD-1 single agent groups (P<0.05)."}, "[5]": {"tested_on": "CD4+ T cells isolated from mouse spleens", "experiment": "Activation of CD4+ T cells by APG-115 (flow cytometry)", "type": "cell-based", "experimental": "Effector T cells play a critical role in antitumor immunity. To investigate whether APG-115 influenced T cell function, CD4^+ T cells isolated from mouse spleens were exposed to APG-115 or solvent control DMSO.\nSpecifically, CD4^+ T cells were positively selected from mouse spleens using magnetic beads and stimulated with 5 μg/ml plate-bound anti-CD3 and 2 μg/ml anti-CD28 in the presence of APG-115 (250 nM) or DMSO for 24 h (Day 1) or 48 h (Day 2). The percentages of CD25-expressing and CD62L-expressing populations (top panel), and FSC (lower panel) were determined by flow cytometry."}, "[6]": {"details": "250 nM, anti-CD3/anti-CD28 stimulated, 24 h or 48 h"}}}
{"smiles": "CCN1[C@@H](C(=O)NC23CCC(C(=O)O)(CC2)CC3)[C@H](c2cccc(Cl)c2F)[C@]2(C(=O)Nc3cc(Cl)ccc32)C12CCCCC2", "note": "[APG-115]", "values": [{"measurement": "expression levels of IL-1β, IL-5, KC/GRO, IL-12p70", "setting": "[1]", "value": "below detection limit"}, {"measurement": "inflammatory cytokines including IFN-γ, IL-2, TNF-α, IL-10 and IL-4", "setting": "[1]; anti-CD3/anti-CD28 stimulated", "value": "upregulation"}, {"measurement": "T/C (%) d17", "setting": "[2]; APG-115 10 mg/kg p.o. q2d", "value": 73, "unit": "%"}, {"measurement": "RTV (Mean ± SEM) d17", "setting": "[2]; APG-115 10 mg/kg p.o. q2d", "value": "15.3 ± 2.7"}, {"measurement": "T/C (%) d17", "setting": "[2]; APG-115 50 mg/kg p.o. q2d", "value": 94, "unit": "%"}, {"measurement": "RTV (Mean ± SEM) d17", "setting": "[2]; APG-115 50 mg/kg p.o. q2d", "value": "19.8 ± 2.2"}, {"measurement": "antitumor activity as single agent", "setting": "[2]; APG-115 10 and 50 mg/kg", "value": "minimal antitumor activity"}, {"measurement": "expression of TP53 and pSTAT3 proteins", "setting": "[3]; Western blotting", "value": "upregulated in a dose-dependent manner"}, {"measurement": "surface expression of PD-L1", "setting": "[3]; flow cytometry", "value": "dose-dependent increase"}, {"measurement": "CD4+ T cells, NK cells, MDSCs, and regulatory T (Treg) cells", "setting": "[4]", "value": "no significant changes"}, {"measurement": "caspase 3 cleavage in T cells", "setting": "[5]; 250 nM of APG-115", "value": "not detected"}, {"measurement": "CD25^highCD62L^low cell populations", "setting": "[5]; [6]", "value": "rapid increase"}, {"measurement": "cell size of stimulated CD4+ T cells (FSC)", "setting": "[5]; [6]", "value": "increase in cell size"}]}
